Results reported in ChEMBL document CHEMBL1201862, “PubChem BioAssay data set” (2004).
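Briefly, cells in 96-well plates were exposed to five compound concentrations for 48 h, and endpoints were estimated by linear interpolation. At the GI50, growth is halved.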 Calls of active or inactive are those of the source. No stated cut-off is given here; in the data, active = GI50 up to about 1.1 µM and inactive = higher. Residues, ends and D or L forms follow the SMILES beside them. *: point of attachment. Boc = CC(C)(C)OC(=O)*

Key:
Assay in all cases: NCI tumour cell line growth inhibition, 48 h
HT-29 = tested on: HT-29
SK-MEL-2 = tested on: SK-MEL-2
SN12C = tested on: SN12C
UO-31 = tested on: UO-31
HCT-116 = tested on: HCT-116
Malme-3M = tested on: Malme-3M
SR = tested on: SR
OVCAR-5 = tested on: OVCAR-5
786-0 = tested on: 786-0
U-251 = tested on: U-251
SNB-19 = tested on: SNB-19
NCI-H460 = tested on: NCI-H460
OVCAR-4 = tested on: OVCAR-4
MOLT-4 = tested on: MOLT-4
LOX IMVI = tested on: LOX IMVI
SK-MEL-5 = tested on: SK-MEL-5
HOP-62 = tested on: HOP-62
SF-295 = tested on: SF-295
MCF7 = tested on: MCF7
NCI/ADR-RES = tested on: NCI/ADR-RES

SMILES | GI50 (HT-29) | GI50 (SK-MEL-2) | GI50 (SN12C) | GI50 (UO-31) | GI50 (HCT-116) | GI50 (Malme-3M) | GI50 (SR) | GI50 (OVCAR-5) | GI50 (786-0) | GI50 (U-251) | GI50 (SNB-19) | GI50 (NCI-H460) | GI50 (OVCAR-4) | GI50 (MOLT-4) | GI50 (LOX IMVI) | GI50 (SK-MEL-5) | GI50 (HOP-62) | GI50 (SF-295) | GI50 (MCF7) | GI50 (NCI/ADR-RES)
O/N=C1/C(=C/c2ccc(OCc3ccccc3)cc2)CCCC1C(NO)c1ccc(OCc2ccccc2)cc1 (stereo unspecified) | 5.24 µM (inactive) | 8.55 µM (inactive) | 3.31 µM (inactive) | 14.6 µM (inactive) | 8.97 µM (inactive) | 46.5 µM (inactive) | 11.8 µM (inactive) | > 100 µM (inactive) | 18.5 µM (inactive) | 10.5 µM (inactive) | 80.9 µM (inactive) | 14.2 µM (inactive) | 6.41 µM (inactive) | 5.6 µM (inactive) | 4.05 µM (inactive) | 6.04 µM (inactive) | 38.9 µM (inactive) | – | – | –
CCOC(=O)Cn1c(=O)[nH]c(=O)c2c1ncn2Cc1ccccc1 | > 100 µM (inactive) | > 100 µM (inactive) | > 100 µM (inactive) | > 100 µM (inactive) | > 100 µM (inactive) | > 100 µM (inactive) | > 100 µM (inactive) | > 100 µM (inactive) | > 100 µM (inactive) | > 100 µM (inactive) | > 100 µM (inactive) | > 100 µM (inactive) | > 100 µM (inactive) | > 100 µM (inactive) | > 100 µM (inactive) | > 100 µM (inactive) | > 100 µM (inactive) | > 100 µM (inactive) | – | –
CC1OC(n2cc(F)c(=O)[nH]c2=O)C=CC1O (stereo unspecified) | > 100 µM (inactive) | > 100 µM (inactive) | > 100 µM (inactive) | > 100 µM (inactive) | > 100 µM (inactive) | > 100 µM (inactive) | > 100 µM (inactive) | > 100 µM (inactive) | > 100 µM (inactive) | > 100 µM (inactive) | > 100 µM (inactive) | > 100 µM (inactive) | > 100 µM (inactive) | > 100 µM (inactive) | > 43.2 µM (inactive) | > 100 µM (inactive) | > 100 µM (inactive) | > 100 µM (inactive) | – | –
Cc1nc(N)nc(N)c1CCCCc1ccccc1 | 2.47 µM (inactive) | 16.7 µM (inactive) | 22.6 µM (inactive) | 19.4 µM (inactive) | 5.21 µM (inactive) | 13.3 µM (inactive) | 13.3 µM (inactive) | 6.93 µM (inactive) | 4.52 µM (inactive) | 11.2 µM (inactive) | 32.4 µM (inactive) | 3.32 µM (inactive) | 58.6 µM (inactive) | 5.3 µM (inactive) | 5.83 µM (inactive) | 4.39 µM (inactive) | 13.6 µM (inactive) | 6.65 µM (inactive) | – | –
C/C=N\N1C(=O)c2ccccc2C1=O | > 100 µM (inactive) | > 100 µM (inactive) | > 100 µM (inactive) | > 100 µM (inactive) | > 100 µM (inactive) | > 100 µM (inactive) | > 100 µM (inactive) | > 100 µM (inactive) | > 100 µM (inactive) | – | > 100 µM (inactive) | > 100 µM (inactive) | > 100 µM (inactive) | > 100 µM (inactive) | > 100 µM (inactive) | > 100 µM (inactive) | > 100 µM (inactive) | > 100 µM (inactive) | – | –
O=C(CN1C(=O)c2ccccc2C1=O)OCC1CCCN2CCCCC12 (stereo unspecified) | > 100 µM (inactive) | > 100 µM (inactive) | > 100 µM (inactive) | > 100 µM (inactive) | > 100 µM (inactive) | > 100 µM (inactive) | – | – | > 100 µM (inactive) | > 100 µM (inactive) | > 100 µM (inactive) | > 100 µM (inactive) | > 100 µM (inactive) | > 100 µM (inactive) | > 100 µM (inactive) | > 100 µM (inactive) | – | > 100 µM (inactive) | > 100 µM (inactive) | > 100 µM (inactive)
CN/C(=N/C#N)NCc1ccccc1 | > 100 µM (inactive) | > 100 µM (inactive) | > 100 µM (inactive) | > 100 µM (inactive) | > 100 µM (inactive) | > 100 µM (inactive) | > 100 µM (inactive) | > 100 µM (inactive) | > 100 µM (inactive) | > 100 µM (inactive) | > 100 µM (inactive) | > 100 µM (inactive) | > 100 µM (inactive) | > 100 µM (inactive) | > 100 µM (inactive) | > 100 µM (inactive) | > 100 µM (inactive) | > 100 µM (inactive) | – | –
S=C(N/N=C(/c1ccccc1)c1ccccn1)N1CCCCCC1 | < 0.0141 µM (active) | 0.489 µM (active) | – | 0.0904 µM (active) | 0.01 µM (active) | < 0.0295 µM (active) | – | 0.0764 µM (active) | < 0.0265 µM (active) | < 0.0252 µM (active) | 0.308 µM (active) | < 0.0283 µM (active) | 0.127 µM (active) | < 0.0134 µM (active) | – | < 0.0228 µM (active) | 0.0514 µM (active) | < 0.0374 µM (active) | 0.0569 µM (active) | < 0.0194 µM (active)
COC(=O)C(=NNc1ccccc1[N+](=O)[O-])C(=O)OC | > 100 µM (inactive) | > 100 µM (inactive) | > 100 µM (inactive) | – | > 100 µM (inactive) | > 100 µM (inactive) | > 100 µM (inactive) | > 100 µM (inactive) | > 100 µM (inactive) | > 100 µM (inactive) | > 100 µM (inactive) | > 100 µM (inactive) | 88.1 µM (inactive) | > 100 µM (inactive) | > 100 µM (inactive) | – | > 100 µM (inactive) | > 100 µM (inactive) | – | –
CCOc1ccc(N/C(=C(/C(Cl)=C(/Cl)N2CCCCC2)[N+](=O)[O-])n2nnc3ccccc32)cc1 | – | 16.7 µM (inactive) | 19.3 µM (inactive) | 2 µM (inactive) | 16.7 µM (inactive) | 21.7 µM (inactive) | – | 16.7 µM (inactive) | 18.7 µM (inactive) | 15.6 µM (inactive) | 19.9 µM (inactive) | 22.2 µM (inactive) | – | 5.27 µM (inactive) | – | 15.6 µM (inactive) | 21.4 µM (inactive) | 22.4 µM (inactive) | 16.9 µM (inactive) | 19.3 µM (inactive)
N#CC1=C(N)OC(c2cccc([N+](=O)[O-])c2)C1(C#N)C#N (stereo unspecified) | 19.1 µM (inactive) | 21.3 µM (inactive) | 33.2 µM (inactive) | 17.9 µM (inactive) | 15.2 µM (inactive) | 18.3 µM (inactive) | – | 20.6 µM (inactive) | 14.9 µM (inactive) | 39.9 µM (inactive) | 21.8 µM (inactive) | – | – | – | 15.1 µM (inactive) | 18 µM (inactive) | 18.9 µM (inactive) | 26.5 µM (inactive) | 20.8 µM (inactive) | 34.3 µM (inactive)
NC(=S)N/N=C(/CCN1CCCC1)CC(C1=C(O)C2=CCCCC2OC1=O)c1ccccc1 (stereo unspecified) | > 100 µM (inactive) | > 100 µM (inactive) | > 100 µM (inactive) | > 100 µM (inactive) | > 100 µM (inactive) | > 100 µM (inactive) | 70 µM (inactive) | > 100 µM (inactive) | > 100 µM (inactive) | > 100 µM (inactive) | > 100 µM (inactive) | > 100 µM (inactive) | > 100 µM (inactive) | – | > 100 µM (inactive) | > 100 µM (inactive) | > 100 µM (inactive) | > 100 µM (inactive) | – | –
COC(=O)C(Cc1c[nH]c2ccccc12)NC(=O)C(Cc1c[nH]c2ccccc12)NC(=O)C(Cc1c[nH]c2ccccc12)NC(=O)C(Cc1c[nH]c2ccccc12)NC(=O)OC(C)(C)C (stereo unspecified) (Boc-WWWW-OMe; configuration not given here) | 22.9 µM (inactive) | – | > 100 µM (inactive) | 89.7 µM (inactive) | 13.9 µM (inactive) | 69.8 µM (inactive) | 4.51 µM (inactive) | > 100 µM (inactive) | 5.14 µM (inactive) | 14.4 µM (inactive) | 31.9 µM (inactive) | 24.9 µM (inactive) | 48.5 µM (inactive) | 3.85 µM (inactive) | 12.7 µM (inactive) | 34.5 µM (inactive) | 25.6 µM (inactive) | – | < 0.01 µM (active) | –
O=[N+]([O-])c1ccc(C2=Nn3cnnc3SC2)o1 | 11.3 µM (inactive) | 20.9 µM (inactive) | 16.5 µM (inactive) | 21.4 µM (inactive) | 14 µM (inactive) | > 10 µM (inactive) | 16.7 µM (inactive) | 22.2 µM (inactive) | 17.3 µM (inactive) | 16.3 µM (inactive) | 29 µM (inactive) | 10.6 µM (inactive) | > 10 µM (inactive) | 20 µM (inactive) | 2.06 µM (inactive) | 16.4 µM (inactive) | 38.2 µM (inactive) | 18.3 µM (inactive) | – | –
COc1ccc(-c2c3ccccc3c(-c3ccc(OC)cc3)c3ccccc23)cc1 | > 100 µM (inactive) | > 100 µM (inactive) | > 100 µM (inactive) | > 100 µM (inactive) | > 100 µM (inactive) | > 100 µM (inactive) | > 100 µM (inactive) | > 100 µM (inactive) | > 100 µM (inactive) | > 100 µM (inactive) | > 100 µM (inactive) | > 100 µM (inactive) | > 100 µM (inactive) | > 100 µM (inactive) | > 100 µM (inactive) | > 100 µM (inactive) | > 100 µM (inactive) | > 100 µM (inactive) | – | –
Cc1cc(N(CCC#N)CCC#N)ccc1/C(Sc1ccccc1)=C(\NC(=O)/C=C/c1ccccc1)C(=O)Sc1ccccc1 | 2.91 µM (inactive) | 3.42 µM (inactive) | 1.7 µM (inactive) | 0.731 µM (active) | 2.17 µM (inactive) | 8.28 µM (inactive) | 0.665 µM (active) | 5.45 µM (inactive) | 2.28 µM (inactive) | 0.82 µM (active) | 9.84 µM (inactive) | 7.01 µM (inactive) | 3.06 µM (inactive) | 0.557 µM (active) | 0.83 µM (active) | 2.77 µM (inactive) | 2.56 µM (inactive) | 3.17 µM (inactive) | – | –
